Molecular target: Amyloid-beta precursor protein (Homo sapiens, UniProt P05067)
Test: Binding affinity to Amyloid-beta (unknown origin) (1 to 42 residues) assessed as dissociation constant incubated for 30 mins by fluorescence based analysis

Chain of Amyloid-beta precursor protein (P05067 whole entry, the tested form may be a part): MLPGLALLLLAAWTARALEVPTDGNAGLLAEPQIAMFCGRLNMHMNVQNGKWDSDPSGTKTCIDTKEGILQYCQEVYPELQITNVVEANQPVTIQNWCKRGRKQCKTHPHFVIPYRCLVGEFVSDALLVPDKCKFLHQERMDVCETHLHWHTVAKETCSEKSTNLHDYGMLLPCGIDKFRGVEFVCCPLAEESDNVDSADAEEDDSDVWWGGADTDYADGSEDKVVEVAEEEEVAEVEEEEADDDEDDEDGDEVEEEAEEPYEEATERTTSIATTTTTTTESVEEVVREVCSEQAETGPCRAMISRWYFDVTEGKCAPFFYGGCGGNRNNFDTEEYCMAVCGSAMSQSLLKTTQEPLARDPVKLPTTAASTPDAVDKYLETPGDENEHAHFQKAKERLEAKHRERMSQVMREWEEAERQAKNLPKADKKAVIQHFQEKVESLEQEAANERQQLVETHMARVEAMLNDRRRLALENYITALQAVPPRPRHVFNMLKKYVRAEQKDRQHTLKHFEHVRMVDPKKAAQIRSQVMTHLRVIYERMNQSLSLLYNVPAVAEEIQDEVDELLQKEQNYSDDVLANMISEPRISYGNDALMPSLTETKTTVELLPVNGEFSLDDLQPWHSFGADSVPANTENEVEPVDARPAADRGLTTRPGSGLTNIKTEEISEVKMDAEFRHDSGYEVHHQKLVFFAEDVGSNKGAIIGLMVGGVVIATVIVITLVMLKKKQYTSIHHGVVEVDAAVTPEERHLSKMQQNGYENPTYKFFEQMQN

SMILES: CCOC(=O)CN1C(=O)/C(=C/c2ccc3c(c2)Sc2ccccc2N3C)SC1=S
- Kd: 7.5 nM
